Results as given in patent US8946266B2, “Substituted triazole and imidazole derivatives as gamma secretase modulators” (Janssen Pharmaceuticals, Inc., priority 2009, dated 2015).

Columns and labels:
Aβ42 [1] = assay: γ-secretase-modulating activity, Method 2: Aβ42 Alphalisa in supernatant of SKNBE2 cells carrying APP 695-wild type (Table 3b); assay type: cell-based; conditions: overnight
Procedure, shortened: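 Aβ42 in the supernatant was quantified by AlphaLISA sandwich (JRF/cAβ42/26 with JRF/AβN/25). Cells were wild-type APP695 SKNBE2, exposed to compound overnight at 37° C., 5% CO2. Data were normalised to untreated maximum and fitted with a four-parameter curve to give IC50.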

Aβ42 [2] = assay: γ-secretase-modulating activity, Method 1: Aβ42 sandwich ELISA in supernatant of SKNBE2 cells carrying APP 695-wild type (Table 3a); assay type: cell-based; conditions: 18 h, averaged IC50 values
Method: (§1) Pharmacology A) Screening of the Compounds of the Invention for γ-Secretase-Modulating Activity A1) Method 1
(§2) Screening was carried out using SKNBE2 cells carrying the APP 695-wild type, grown in Dulbecco's Modified Eagle's Medium/Nutrient mixture F-12 (DMEM/NUT-mix F-12) (HAM) provided by Gibco (cat no. 31330-38) containing 5% Serum/Fe supplemented with 1% non-essential amino acids. Cells were grown to near confluency.
(§3) The screening was performed using the assay as described in Citron et al (1997) Nature Medicine 3: 67. Briefly, cells were plated in a 96-well plate at about 10^5 cells/ml one day prior to addition of compounds. Compounds were added to the cells in Ultraculture (Lonza, BE12-725F) supplemented with 1% glutamine (Invitrogen, 25030-024) for 18 h. The media were assayed by two sandwich ELISAs, for Aβ42 and Aβtotal. Toxicity of the compounds was assayed by WST-1 cell proliferation reagent (Roche, 1 644 807) according to the manufacturer's protocol.
To quantify the amount of Aβ42 in the cell supernatant, commercially available Enzyme-Linked-Immunosorbent-Assay (ELISA) kits were used (Innotest® β-Amyloid(1-42), Innogenetics N.V., Ghent, Belgium). The Aβ42 ELISA was performed essentially according to the manufacturer's protocol. Briefly, the standards (dilutions of synthetic Aβ1-42) were prepared in polypropylene Eppendorf with final concentrations of 8000 down to 3.9 pg/ml (1/2 dilution step). Samples, standards and blanks (100 μl) were added to the anti-Aβ42-coated plate supplied with the kit (the capture antibody selectively recognizes the C-terminal end of the antigen). The plate was allowed to incubate 3 h at 25° C. in order to allow formation of the antibody-amyloid complex. Following this incubation and subsequent wash steps a selective anti-Aβ-antibody conjugate (biotinylated 3D6) was added and incubated for a minimum of 1 hour (h) in order to allow formation of the antibody-Amyloid-antibody-complex. After incubation and appropriate wash steps, a Streptavidine-Peroxidase-Conjugate was added, followed 30 minutes later by an addition of 3,3′,5,5′-tetramethylbenzidine (TMB)/peroxide mixture, resulting in the conversion of the substrate into a coloured product. This reaction was stopped by the addition of sulfuric acid (0.9 N) and the colour intensity was measured by means of photometry with an ELISA-reader with a 450 nm filter.
To obtain the values reported in Table 3a, the data were calculated as percentage of the maximum amount of amyloid Beta 42 measured in the absence of the test compound. The sigmoidal dose response curves were analyzed using non-linear regression analysis with percentage of the control plotted against the log concentration of the compound. A 4-parameter equation was used to determine the IC50. The values reported in Table 3a are averaged IC50 values.

Aβtotal [3] = assay: γ-secretase-modulating activity, Method 2: Aβtotal Alphalisa in supernatant of SKNBE2 cells carrying APP 695-wild type (Table 3b); assay type: cell-based; conditions: overnight, read-out: IC50 Aβtot
Procedure, shortened: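 Secreted Aβtotal was quantified by AlphaLISA pairing an N-terminal antibody (JRF/AβN/25) with biotinylated mid-region 4G8. Wild-type APP 695 SKNBE2 cells received serially varied compound overnight at 37 °C; IC50 came from a 4-parameter nonlinear regression of percent of control against log dose.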

Aβtotal [4] = assay: γ-secretase-modulating activity, Method 1: Aβtotal sandwich ELISA in supernatant of SKNBE2 cells carrying APP 695-wild type; assay type: cell-based; conditions: Table 3a, 18 h, averaged IC50 values
Method: as §1, §2, §3
To quantify the amount of Aβtotal in the cell supernatant, samples and standards were added to a 6E10-coated plate. The plate was allowed to incubate overnight at 4° C. in order to allow formation of the antibody-amyloid complex. Following this incubation and subsequent wash steps a selective anti-Aβ-antibody conjugate (biotinylated 4G8) was added and incubated for a minimum of 1 h in order to allow formation of the antibody-Amyloid-antibody-complex. After incubation and appropriate wash steps, a Streptavidine-Peroxidase-Conjugate was added, followed 30 minutes later by an addition of Quanta Blu fluorogenic peroxidase substrate according to the manufacturer's instructions (Pierce Corp., Rockford, Ill.).

SMILES	IC50 (Aβ42 [1])	IC50 (Aβ42 [2])	IC50 (Aβtotal [3])	IC50 (Aβtotal [4])	IC50 (Aβ42 [1]; Homo sapiens)	melting point	IC50 (Aβtotal [3]; Homo sapiens)	IC50 (Aβ42 [2]; Homo sapiens)	IC50 (Aβtotal [4]; Homo sapiens)
COc1cc(-c2nc(-c3ccccc3)c(C)[nH]2)ccc1-n1ncnc1C [Compound 299]	8.13 µM	> 3 µM	> 10 µM	> 3 µM					
COc1cc(-c2nc3n(n2)CCCN3c2ccccc2C(F)(F)F)ccc1-n1cnc(C)c1 [Compound 18]					0.076 µM	211.6 °C	> 10 µM		
COc1ccc(CO)c(Nc2nc(-c3ccc(-n4cnc(C)c4)c(OC)c3)nn2C)c1 [Compound 200]					0.158 µM	235.2 °C	> 10 µM		
COc1cc(-c2nc(Nc3ccc(F)cc3C)n(C)n2)ccc1-n1cnc(C)c1 [Compound 130]					0.06 µM	189.7 °C	> 10 µM		
COc1cc(-c2nc3n(n2)CCNC3c2ccccc2C(F)(F)F)ccc1-n1cnc(C)c1 (stereo not shown) [Compound 278]					0.398 µM	183 °C	> 10 µM		
COc1cc(-c2nc3nccc(-c4ccccc4C(F)(F)F)n3n2)ccc1-n1cnc(C)c1 [Compound 290]					0.224 µM	191 °C	> 10 µM		
COc1cc(-c2nc3n(n2)CCN(C)C3c2ccccc2C(F)(F)F)ccc1-n1cnc(C)c1 (stereo not shown) [Compound 275]					0.269 µM	154.26 °C	> 10 µM		
COc1cc(-c2nc(C)n(-c3ccc(F)cc3)n2)ccc1-n1cnc(C)c1 [Compound 3]					0.417 µM	157.3 °C	> 10 µM	0.49 µM	> 3 µM
COc1cc(-c2nc(Nc3cc(C(C)(C)O)ccc3F)n(C)n2)ccc1-n1cnc(C)c1 [Compound 175]					0.089 µM	193.8 °C	> 10 µM		
COc1cc(-c2nc(CC(C)C)c(C)[nH]2)ccc1-n1cnc(C)c1 [Compound 26]		0.76 µM		> 3 µM					
COc1cc(-c2nc(C)c(C)[nH]2)ccc1-n1cnc(C)c1 [Compound 25]	6.46 µM	2.51 µM	> 10 µM	> 3 µM					
COc1nc(-c2nc(Nc3cc(C(F)(F)F)ccc3F)n(C)n2)ccc1-n1cnc(C)c1 [Compound 154]					0.017 µM	230.1 °C	> 10 µM		
COc1cc(-c2nc(-c3ccccc3Cl)n(C(C)C)n2)ccc1-n1cnc(C)c1 [Compound 66]					0.562 µM	159 °C	> 10 µM		
COc1cc(-c2nc(-c3ccc(-n4cnc(C)c4)c(OC)c3)n[nH]2)ccc1Cl [Compound 20]					0.257 µM	262.6 °C	> 10 µM		
COc1cc(-c2nc(C)c(-c3cccc(C(F)(F)F)c3)n2C)ccc1-n1cnc(C)c1 [Compound 13]	0.724 µM	1.05 µM	> 10 µM	> 3 µM					
COc1cc(-c2nc(Nc3ccccc3C(F)(F)F)n(C)n2)ccc1-n1cnc(C)c1 [Compound 157]					0.063 µM	159.3 °C	> 15 µM		
COc1cc(-c2nc(-c3ccccc3Cl)n(C)n2)ccc1-n1cnc(C)c1 [Compound 2]					0.468 µM	149.3 °C	> 10 µM		

SMILES	IC50 (Aβ42 [1])	IC50 (Aβ42 [2])	IC50 (Aβtotal [3])	IC50 (Aβtotal [4])	IC50 (Aβ42 [1]; Homo sapiens)	melting point	IC50 (Aβtotal [3]; Homo sapiens)	IC50 (Aβ42 [2]; Homo sapiens)	IC50 (Aβtotal [4]; Homo sapiens)
COc1cc(-c2nc(-c3cccc(C(F)(F)F)c3)c(C)n2C)ccc1-n1cnc(C)c1 [Compound 14]	0.282 µM	0.5 µM	5.25 µM	> 3 µM					
COc1cc(-c2nc(Nc3ccccc3C)n(C)n2)ccc1-n1cnc(C)c1 [Compound 97]					0.049 µM	159.4 °C	> 10 µM		
CCCc1[nH]c(-c2ccc(-n3cnc(C)c3)c(OC)c2)nc1-c1ccccc1 [Compound 29]	0.17 µM	0.19 µM	> 10 µM	> 3 µM					
COc1cc(-c2nc(C(=O)c3ccc(F)cc3)n(C)n2)ccc1-n1cnc(C)c1 [Compound 21]					6.92 µM	145.3 °C	> 10 µM		
COc1cc(-c2nc3n(n2)CCOC3c2cc(OC(F)(F)F)ccc2F)ccc1-n1cnc(C)c1 (stereo not shown) [Compound 281]					0.076 µM	232.1 °C	> 10 µM		
COc1cc(-c2nc(C)c(-c3cccc(C(F)(F)F)c3)[nH]2)ccc1-n1cnc(C)c1 [Compound 12]					0.033 µM		3.63 µM	0.09 µM	> 3 µM
COc1cc(-c2nc3c(-c4ccccc4C(F)(F)F)nccn3n2)ccc1-n1cnc(C)c1 [Compound 294]					0.537 µM	176.9 °C	> 10 µM		
COc1cc(-n2cnc(C)c2)ccc1-c1nc(-c2ccccc2)c(C)[nH]1 [Compound 27]	< 3 µM	0.17 µM	> 3 µM	> 10 µM					
COc1cc(-c2nc(-c3cc(F)c(F)c(F)c3)n(C(C)C)n2)ccc1-n1cnc(C)c1 [Compound 84]					0.316 µM	122.23 °C	> 10 µM		
Cc1cn(-c2ccc(-c3nc(Nc4cccc(C(F)(F)F)c4)n[nH]3)cn2)cn1 [Compound 24]					1.05 µM		6.61 µM	1.45 µM	> 3 µM
COc1cc(-c2nc3cncc(-c4ccc(F)cc4C)n3n2)ccc1-n1cnc(C)c1 [Compound 295]					0.537 µM	210.7 °C	> 10 µM		
COc1cc(-c2nc3n(n2)CCCC3c2ccc(F)cc2C)ccc1-n1cnc(C)c1 (stereo not shown) [Compound 258]					0.062 µM	241.8 °C	> 10 µM		
COc1cc(-c2nc3n(n2)CCCC3c2ccc(F)cc2)ccc1-n1cnc(C)c1 (stereo not shown) [Compound 251]					0.245 µM	190.5 °C	> 10 µM		
COc1cc(-c2nc3nc(-c4ccccc4C(F)(F)F)ccn3n2)ccc1-n1cnc(C)c1 [Compound 291]					0.045 µM	193.4 °C	9.77 µM		
COc1cc(-c2nc(-c3ccccc3)c(C)[nH]2)ccc1-n1cnc(C)n1 [Compound 28]	> 3 µM	> 3 µM	> 3 µM	> 3 µM					
COc1cc(-c2nc(Nc3cccc(C(F)(F)F)n3)n(C)n2)ccc1-n1cnc(C)c1 [Compound 236]					0.575 µM	240 °C	> 10 µM		
COc1cc(-c2nc3n(n2)CCCC3c2ccccc2C(F)(F)F)ccc1-n1cnc(C)c1 (stereo not shown) [Compound 10]					0.025 µM	218 °C	8.32 µM		
